{
  "source": "patent US20190177440A1",
  "about": "“COMPOUND OR SALT THEREOF, ANTI-INFLAMMATORY AGENT, ANTI-CANCER AGENT AGAINST LUNG CANCER, METHOD OF PRODUCING COMPOUND OR SALTS THEREOF, METHOD OF TREATING INFLAMMATORY DISEASES AND METHOD OF TREATING LUNG CANCER” (TFK CO., LTD., priority 2016, published 2019)",
  "key": {"[1]": {"system": "Lewis lung carcinoma: 3LL", "assay": "Tumor volume in mice bearing Lewis lung carcinoma 3LL (Example 9)", "type": "in vivo, mouse", "settings": "Example 9-1: ip 0.5 mg/10 mL/kg once, without CY; days 3, 6, 9; FIG. 9", "method": "(1) Preparation of Cancer-Bearing Mice Suspensions of Lewis lung cancer cell lines (Lewis lung carcinoma: 3LL, obtained from JCRB cell banks) were subcutaneously administered to the ventral region of five male C57 BL/6J mice aged 6 weeks so that the cancer cell dose per animal was 2.5×10^5 cells per 200 μL. Two weeks after dosing, tumors were excised from one of the mice and washed on dishes with PBS (−). Next, the washed tumor was made into a finely divided tumor fragment of about 2 mm square, the tumor fragment was transferred to a 50 mL tube, 5 mL of collagenase solution was added, and the mixture was warmed at 37° C. for 10 minutes. Thereafter, the collagenase solution containing the tumor fragments was pipetted into finer tumor fragments, and the collagenase solution containing the tumor fragments was transferred to another 50 mL tube and cooled on ice. After cooling, an additional 5 mL of collagenase solution was added to the collagenase solution containing the tumor fragments, and the same procedure was repeated 5 times until no tumor fragments could be observed. Thereafter, the collagenase solution containing the tumor fragment was filtered through a cell strainer (mesh size: 70 μm, manufactured by BD Corporation), and the filtrate was centrifuged at 1200 rpm for 7 minutes. After centrifugation, the supernatant was removed, 20 ml of […] medium (serum-free) was added to the precipitate, and after suspension by inversion mixing, the precipitate was centrifuged at 1200 rpm for 7 minutes. After centrifugation, the supernatant was removed, and the precipitate was washed twice with PBS (−), and then 10 mL of PBS (−) was added and suspended to prepare a cancer cell suspension. The cancer cell suspension was subcutaneously administered to the ventral portion of the 12 mice so that the cancer cell dose per animal was 2.5×10^5 cells per 200 μL. Fourteen days after dosing, tumors were excised from 10 of the mice and cancer cell suspensions were prepared in the same manner as described above. The cancer cell suspensions were administered intracutaneously into the abdomen of the 108 mice so that the cancer cell dose per animal was 2.5×10^5 cells per 50 μL. After administration, mice were divided into six groups (n=6 in each group) as shown below at the time point when the tumor size of each mouse became about 5 mm in diameter (day 8 after administration). […]\nThe major and minor diameters of the tumors were measured using calipers on Days 3, 6 and 9 on the day of grouping as day 0, and the tumor volume was calculated based on these measurements. […]"}, "TNF-α": {"system": "TNF-α", "assay": "TNF-α production in RAW264.7 mouse macrophage cells (Example 6)", "type": "cell-based", "settings": "final 0.01, 0.1 and 1 ng/mL, no LPSp, FIG. 6", "method": "In the same manner as “(1) Preparation of test solution” in Example 3, a solution having a concentration of the purified product of 20,000 ng/mL was prepared, and the solution was serially diluted with a culture solution having the following composition, thereby obtaining a total of three test solutions having a concentration of 2 ng/mL, 0.2 ng/mL, and 0.02 ng/mL. Since the three test solutions are diluted twice when added to the cells, the final concentrations of the purified products are 1 ng/mL, 0.1 ng/mL, and 0.01 ng/mL, respectively.\nThe culture medium was added to mouse macrophage cells (RAW264.7, ATCC) to prepare solutions at concentrations of 4×10^5 cells/mL. The solutions were seeded in 96-well flat-bottomed plates in 100 μL portions, i.e., 4×10^4 cells/100 μL/well. After seeding, the cells were incubated at 37° C. in 5% CO2 for 2 hours until they adhered to the bottoms of the wells and extended. Next, 100 μL of the test solution was added to each well. After adding the test solution, the cells were incubated at 37° C. in a 5% CO2 for 24 hours. After the incubation, the culture supernatant of the wells was removed, 150 μl of the above-mentioned culture solution was newly added (hereinafter, this step is referred to as a “culture solution adding step”), and the wells were incubated at 37° C. in a 5% CO2 for 24 hours.\nAfter incubation, 50 μl of culture supernatant from each well was collected, transferred to each well of new 96-well flat-bottom plates, and absorbance was measured using mouse TNF a assay kit (manufactured by Biolegend) and converted to TNF-α concentrations."}, "PPARγ gene": {"system": "PPARγ gene", "assay": "PPARγ gene expression in THP-1 cells by CAGE method (Example 8-2)", "type": "cell-based, human", "settings": "3 hours", "method": "The same culture medium as in Example 8-1(2) was added to the THP-1 cells to prepare solutions in which the concentrations of the cells were 5×10^5 cells/mL. The expression level of the PPARγ gene in this solution was measured by the CAGE method and found to be 3.97 TPM (Tags Per Million). After the measurement, the cell solution was divided into the following four groups. That is, there are four groups: a group in which a solution of the purified product is added to the cell solution so as to have a final concentration of 1 μg/mL (Example 8-2A), a group in which a solution of the purified product is added to the cell solution so as to have a final concentration of 10 μg/mL (Example 8-2B), a group in which nothing is added to the cell solution (Comparative Example 8-2A), and a group in which a LPSp solution is added to the cell solution so as to have a final concentration of 100 ng/mL (Comparative Example 8-2B). After culturing the four groups for 3 hours, the expression level of the PPARγ gene was measured by the CAGE method. FIG. 27 is a graph showing the expression levels of the PPARγ genes. In FIG. 27, the horizontal axis represents the incubation time, and the vertical axis represents the expression amount (TPM) of the PPARγ gene. […] In contrast, in Comparative Example 8-2A, the expression level of the PPARγ gene decreased slightly from 3.97 TPM to 3.89 TPM during 3 hours, and in Comparative Example 8-2B, the expression level of the PPARγ gene increased from 3.97 TPM to 4.31 TPM during 3 hours, but the degree of the increase was not significant."}},
  "data": [
    {"smiles": "CCCCCC/C=C/CCCCCC(=O)OC(CCCCCCCCCCC)CC(=O)NC1C(OCC2OC(OP(=O)(O)O)C(NC(=O)CC(=O)CCCCCCCCCCC)C(OC(=O)CC(O)CCCCCCC)C2O)OC(COC2(C(=O)O)CC(OC3(C(=O)O)CC(OC4OC(C(=O)O)C(OC5OC(CO)C(O)C(O)C5O)C(O)C4O)C(O)C(C(O)CO)O3)C(OC3OC(COP(=O)(O)O)C(OC4OC(CO)C(O)C(O)C4O)C(O)C3O)C(C(O)CO)O2)C(OP(=O)(O)O)C1OC(=O)CC(O)CCCCCCC", "note": "(stereo not drawn) [Formula (A1)]", "values": [
      {"measurement": "tumor volume versus saline group", "setting": "[1]", "value": "equivalent results"},
      {"measurement": "TNF-α concentration in culture supernatant", "setting": "TNF-α", "value": "Equivalent results were obtained"},
      {"measurement": "effect on expression of the PPARγ gene (in words)", "setting": "PPARγ gene", "value": "Equivalent results were obtained"}
    ]},
    {"smiles": "CCCCCC/C=C/CCCCCC(=O)OC(CCCCCCCCCCC)CC(=O)NC1C(OCC2OC(OP(=O)(O)O)C(NC(=O)CC(=O)CCCCCCCCCCC)C(OC(=O)CC(O)CCCCCCC)C2O)OC(COC2(C(=O)O)CC(OC3(C(=O)O)CC(OC4OC(C(=O)O)C(OC5OC(CO)C(O)C(O)C5O)C(O)C4O)C(O)C(C(O)CO)O3)C(OC3OC(CO)C(O)C(O)C3O)C(C(O)CO)O2)C(OP(=O)(O)O)C1OC(=O)CC(O)CCCCCCC", "note": "(stereo not drawn) [Formula (A2)]", "values": [
      {"measurement": "tumor volume versus saline group", "setting": "[1]", "value": "equivalent results"},
      {"measurement": "TNF-α concentration in culture supernatant", "setting": "TNF-α", "value": "Equivalent results were obtained"},
      {"measurement": "effect on expression of the PPARγ gene (in words)", "setting": "PPARγ gene", "value": "Equivalent results were obtained"}
    ]},
    {"smiles": "CCCCCC/C=C/CCCCCC(=O)OC(CCCCCCCCCCC)CC(=O)NC1C(OCC2OC(OP(=O)(O)O)C(NC(=O)CC(=O)CCCCCCCCCCC)C(OC(=O)CC(O)CCCCCCC)C2O)OC(COC2(C(=O)O)CC(OC3(C(=O)O)CC(O)C(OC4OC(C(=O)O)C(OC5OC(CO)C(O)C(O)C5O)C(O)C4O)C(C(O)CO)O3)C(OC3OC(COP(=O)(O)O)C(OC4OC(CO)C(O)C(O)C4O)C(O)C3O)C(C(O)CO)O2)C(OP(=O)(O)O)C1OC(=O)CC(O)CCCCCCC", "note": "(stereo not drawn) [Formula (B1)]", "values": [
      {"measurement": "tumor volume versus saline group", "setting": "[1]", "value": "equivalent results"},
      {"measurement": "TNF-α concentration in culture supernatant", "setting": "TNF-α", "value": "Equivalent results were obtained"},
      {"measurement": "effect on expression of the PPARγ gene (in words)", "setting": "PPARγ gene", "value": "Equivalent results were obtained"}
    ]},
    {"smiles": "CCCCCC/C=C/CCCCCC(=O)OC(CCCCCCCCCCC)CC(=O)NC1C(OCC2OC(OP(=O)(O)O)C(NC(=O)CC(=O)CCCCCCCCCCC)C(OC(=O)CC(O)CCCCCCC)C2O)OC(COC2(C(=O)O)CC(OC3(C(=O)O)CC(O)C(OC4OC(C(=O)O)C(OC5OC(CO)C(O)C(O)C5O)C(O)C4O)C(C(O)CO)O3)C(OC3OC(CO)C(O)C(O)C3O)C(C(O)CO)O2)C(OP(=O)(O)O)C1OC(=O)CC(O)CCCCCCC", "note": "(stereo not drawn) [Formula (B2)]", "values": [
      {"measurement": "tumor volume versus saline group", "setting": "[1]", "value": "equivalent results"},
      {"measurement": "TNF-α concentration in culture supernatant", "setting": "TNF-α", "value": "Equivalent results were obtained"},
      {"measurement": "effect on expression of the PPARγ gene (in words)", "setting": "PPARγ gene", "value": "Equivalent results were obtained"}
    ]}
  ]
}
